“Also recorded” adds a separate entry of the source.
Assay: Relative stability of crystalline polymorphs (DSC, x-ray powder diffraction)
Assay type: physicochemical
Conditions: non-solvated crystalline forms of 4,7β-dimethyl-4-aza-5α-cholestan-3-one
Protocol: The crystallinity of each batch was determined primarily from Differential Scanning Calorimetry (DSC) employing a DuPont Model 910 Thermal Analyzer. However, any other reliable means may be employed to determine the crystallinity of a sample, such as x-ray powder diffraction, solid state NMR, or polarizing microscopy.
Generally, a DSC sample was prepared by weighing. 10 to 30 mg of material into a DSC cup and crimping the cup closed. Preferably, each DSC sample was run as soon as possible after preparation, most preferably within 15 minutes of preparation, because crystallinity increases with aging. Generally, samples were heated at a rate of 10° C./min from 10° C. to 100° C. under nitrogen. The DSC peaks were integrated and the measured heat of formation was divided by 46.6 J/g (the average heat of formation of samples confirmed by x-ray diffraction to contain no Form II) to calculate the percent crystallinity of the sample. The term percent crystallinity refers to the weight percent of 4,7β-dimethyl-4-aza-5α-cholestan-3-one sample weight in Form I.
X-ray diffraction was also employed to confirm DSC results. […] This method was not employed for quantitative analysis of the degree of crystallinity.

CC(C)CCC[C@@H](C)[C@H]1CC[C@H]2[C@@H]3[C@@H](C)C[C@H]4N(C)C(=O)CC[C@]4(C)[C@H]3CC[C@]12C [Form I, 4,7β-dimethyl-4-aza-5α-cholestan-3-one]
polymorph stability: more stable, energetically favored polymorph

CC(C)CCC[C@@H](C)[C@H]1CC[C@H]2[C@@H]3[C@@H](C)C[C@H]4N(C)C(=O)CC[C@]4(C)[C@H]3CC[C@]12C [Form II, 4,7β-dimethyl-4-aza-5α-cholestan-3-one]
polymorph stability: transforms to Form I with time and/or mechanical manipulation; also recorded: less energetically favored polymorph
